Assay results reported in article PMC3465485 (Antiviral research, 2012).
Like-named read-outs stand apart in the source and are kept apart here.

Legend:
[1] = 100 mg/kg/day; no reference given; cited from earlier work
[2] = tested on: influenza A/California/07/2009 (H1N1) virus; assay: microbe, parasite or virus in culture; conditions: H1N1, MDCK
[3] = in vitro; conditions: dog
[4] = tested on: influenza A/California/07/2009 (H1N1) virus
[5] = target: A/California/07/2009 neuraminidase (Influenza A virus (A/California/07/2009(H1N1)), UniProt C3W6G3); assay type: biochemical
[6] = tested on: MDCK cells

NC(=O)c1ncn([C@@H]2O[C@H](CO)[C@@H](O)[C@H]2O)n1 [Ribavirin]
toxicity in mice (in words) [1]: begins to cause toxicity
EC50 [2]: 28 ± 11 µM

NC12CC3CC(CC(C3)C1)C2 [Amantadine]
CC50 [3]: > 100 µM
EC50 [2]: > 100 µM
antiviral activity in cell culture (in words) [4]: no antiviral effect

CC(=O)N[C@H]1[C@H]([C@H](O)[C@H](O)CO)OC(C(=O)O)=C[C@@H]1N=C(N)N [Zanamivir]
CC50 [3]: > 100 µM
EC50 [4]: 0.08 ± 0.07 µM

CC(N)C12CC3CC(CC(C3)C1)C2 (stereo not drawn) [Rimantadine]
CC50 [3]: 22 ± 1 µM
EC50 [2]: > 22 µM
SI (CC50/EC50) [4]: 0
antiviral activity in cell culture (in words) [4]: no antiviral effect

Peramivir
EC50 [4]: 0.04 ± 0.07 µM
SI (CC50/EC50) [4]: >2500
IC50 [5]: 0.0029 ± 0.0006 µM
CC50 [6]: > 100 µM

CCC(CC)O[C@@H]1C=C(C(=O)O)C[C@H](N)[C@H]1NC(C)=O [Oseltamivir Carboxylate, Oseltamivir carboxylate]
CC50 [3]: > 100 µM
EC50 [4]: 0.06 ± 0.1 µM
neuraminidase inhibition (in words) [5]: slightly less potent than the other two compounds
